What was measured:
Assay in all cases: relative viability (nuclei count vs DMSO), 5 days (fraction); higher = more cells survive
Cediranib + Linsitinib = compound: COc1cc2c(Oc3ccc4[nH]c(C)cc4c3F)ncnc2cc1OCCCN1CCCC1 [Cediranib] + C[C@]1(O)C[C@@H](c2nc(-c3ccc4ccc(-c5ccccc5)nc4c3)c3c(N)nccn32)C1 [Linsitinib] (partner 1 µM)
In short: (§1)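 Nuclei were stained with Hoechst during a one-step fixation (final 0.05% Triton X-100, 1% formaldehyde, 1 ug/ml Hoechst) carried out 5 days after dosing, then counted on 4× images. The cells, lung cancer lines in 1536-well plates, had been dosed by pin tool the day after seeding with one drug alone or a fixed anchor-drug dose plus five library-drug doses (not always all listed) in √10 steps. Relative viability is the nuclei count in treated wells divided by that in vehicle wells, and each value is the median of duplicate plates.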

[1] = compound: O=C(C[C@H]1NCCC[C@@H]1O)Cn1cnc2cc(Br)c(Cl)cc2c1=O (racemic) [Halofuginone] + CC(=O)c1c(C)c2cnc(Nc3ccc(N4CCNCC4)cn3)nc2n(C2CCCC2)c1=O [Palbociclib] (partner 0.5 µM)
In short: as §1

Decitabine + Bortezomib = compound: Nc1ncn([C@H]2C[C@H](O)[C@@H](CO)O2)c(=O)n1 [Decitabine] + CC(C)C[C@H](NC(=O)[C@H](Cc1ccccc1)NC(=O)c1cnccn1)B(O)O [Bortezomib] (partner 0.002 µM)
In short: as §1

Cell Line	relative viability (Cediranib + Linsitinib; first compound 0.04 µM)	relative viability (Cediranib + Linsitinib; first compound 0.1265 µM)	relative viability (Cediranib + Linsitinib; first compound 0.4 µM)	relative viability (Cediranib + Linsitinib; first compound 1.265 µM)	relative viability (Cediranib + Linsitinib; first compound 4 µM)	relative viability ([1]; first compound 0.001 µM)	relative viability ([1]; first compound 0.003162 µM)	relative viability ([1]; first compound 0.01 µM)	relative viability ([1]; first compound 0.03162 µM)	relative viability ([1]; first compound 0.1 µM)	relative viability (Decitabine + Bortezomib; first compound 0.04 µM)	relative viability (Decitabine + Bortezomib; first compound 0.1265 µM)	relative viability (Decitabine + Bortezomib; first compound 0.4 µM)	relative viability (Decitabine + Bortezomib; first compound 1.265 µM)	relative viability (Decitabine + Bortezomib; first compound 4 µM)
NCI-H460	0.86	0.757	0.702	0.727	0.676	0.233	0.237	0.207	0.182	0.0284	0.909	0.991	0.811	0.35	0.272
LCLC-103H	1.19	1.12	1.04	1.02	1.18	0.492	0.491	0.462	0.467	0.523	0.985	1.04	0.966	0.9	0.749
HCC-827	1.02	–	0.945	0.949	0.991	0.485	0.459	0.491	0.56	0.478	0.748	0.567	0.399	0.36	0.372
NCI-H322M	1.01	0.997	0.879	0.856	1.09	0.549	0.475	0.45	0.465	0.357	1.18	1.06	0.716	0.699	0.479
NCI-H1666	0.865	0.903	0.729	0.885	0.877	0.668	0.683	0.641	0.676	0.645	0.723	0.726	0.545	0.625	0.569
NCI-H1437	1.09	0.987	0.951	1.04	1.01	0.334	0.3	0.296	0.33	0.286	0.38	0.324	0.313	0.221	0.203
NCI-H1792	0.61	0.701	0.535	0.674	0.574	0.613	0.704	0.666	0.662	0.585	0.927	0.99	0.923	0.444	0.521
NCI-H1355	0.8	0.866	0.781	0.813	0.96	0.414	0.435	0.368	0.413	0.38	0.826	0.583	0.517	0.305	0.297
SK-LU-1	1.18	1.04	0.979	1.06	1.07	0.389	0.439	0.369	0.368	0.319	0.781	0.849	0.251	0.516	0.503
NCI-H2228	0.873	0.955	0.8	0.536	1.03	0.957	0.736	0.971	0.496	0.111	0.788	0.755	0.389	0.314	0.229
NCI-H2347	0.979	0.86	0.919	1	0.903	0.44	0.453	0.513	0.438	0.332	–	0.768	0.844	0.525	0.572
A-427	1.17	–	0.984	1.07	1.17	0.526	0.538	0.534	0.49	0.479	0.769	0.571	0.247	0.271	0.242
HCC-366	0.65	0.634	0.582	0.542	1.05	0.363	0.472	0.351	0.358	0.14	0.971	0.788	0.421	0.197	0.121
